The values that follow come from US20210275621A1, “COMPOSITION FOR PREVENTING, ALLEVIATING, IMPROVING, OR TREATING THE FEMALE HORMONE CONTROLLING DISORDER SYNDROME OR SYMPTOMS COMPRISING GREEN TEA EXTRACT WHICH HAS MODIFIED AMOUNTS OF INGREDIENTS” (AMOREPACIFIC CORPORATION, priority 2020, published 2021).

Assay type in all cases: cell-based
In test [1] the test system is MCF-7 cells (breast cancer cells). The experiment in a line: MCF-7 breast cancer cell growth (cell counting). To be noted: 100 pM, 48 hours; FIG. 7.
The target in another test is T1, estrogen receptor ERα (Homo sapiens, UniProt P03372).
T1 construct: host or cells: reporter cells included in the purchased panel
T1 sequence (P03372 1-595): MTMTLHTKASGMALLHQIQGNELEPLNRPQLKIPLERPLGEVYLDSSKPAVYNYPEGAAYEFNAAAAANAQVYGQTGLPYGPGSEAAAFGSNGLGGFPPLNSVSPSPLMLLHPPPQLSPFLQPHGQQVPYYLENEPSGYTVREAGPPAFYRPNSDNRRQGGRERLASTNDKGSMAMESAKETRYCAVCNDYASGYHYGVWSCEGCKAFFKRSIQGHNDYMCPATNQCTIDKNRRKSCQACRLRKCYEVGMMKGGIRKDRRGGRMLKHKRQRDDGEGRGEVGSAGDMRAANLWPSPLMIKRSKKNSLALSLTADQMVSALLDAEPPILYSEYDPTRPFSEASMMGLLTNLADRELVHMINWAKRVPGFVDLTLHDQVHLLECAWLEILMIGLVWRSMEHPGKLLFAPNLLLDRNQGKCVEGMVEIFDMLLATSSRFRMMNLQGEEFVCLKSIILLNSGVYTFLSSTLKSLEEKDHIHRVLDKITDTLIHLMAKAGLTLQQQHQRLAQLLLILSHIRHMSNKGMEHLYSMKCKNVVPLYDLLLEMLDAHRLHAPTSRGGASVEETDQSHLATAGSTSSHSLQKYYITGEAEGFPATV
Briefly: Human ERα/β reporter assay panel (ERE-luc), ERα. To be noted: 1 μg/mL, 24 hours; FIG. 6. The protocol:
(§1) For evaluation of the effect of activating estrogen receptors alpha and beta (ERα/β) of the notified green tea extract, the high-temperature-processed green tea extract and theanine depending on the weight ratio of GCG:EGCG, a human ERα/β reporter assay panel (IB00421-48P, Indigo Bioscience) was treated with 20 μg/mL sample 1 (notified green tea extract), 20 μg/mL sample 2 (high-temperature-processed green tea extract), 20 μg/mL sample 3, or 20 μg/mL sample 4 of Preparation Example 1 or 2, or 1 μg/mL theanine of Preparation Example 3, for 24 hours and then the increased activity of the estrogen receptors ERα and ERβ was analyzed.
(§2) Specifically, ERα and ERβ are overexpressed and the ERE-luc reporter gene is included in the cells included in the human ERα/β reporter assay panel. If the activity of the estrogen receptors is increased upon treatment with the test substance, ERα and ERβ are bound to ERE and the expression of luciferase is induced. Therefore, the activity of ERα and ERβ can be determined by measuring light emission from the cells.
In general terms: A reporter such as luciferase makes a cellular process visible.

The target in another test is T2, estrogen receptor ERβ (Homo sapiens, UniProt Q92731).
T2 construct: host or cells: reporter cells included in the purchased panel
T2 sequence (Q92731 whole entry): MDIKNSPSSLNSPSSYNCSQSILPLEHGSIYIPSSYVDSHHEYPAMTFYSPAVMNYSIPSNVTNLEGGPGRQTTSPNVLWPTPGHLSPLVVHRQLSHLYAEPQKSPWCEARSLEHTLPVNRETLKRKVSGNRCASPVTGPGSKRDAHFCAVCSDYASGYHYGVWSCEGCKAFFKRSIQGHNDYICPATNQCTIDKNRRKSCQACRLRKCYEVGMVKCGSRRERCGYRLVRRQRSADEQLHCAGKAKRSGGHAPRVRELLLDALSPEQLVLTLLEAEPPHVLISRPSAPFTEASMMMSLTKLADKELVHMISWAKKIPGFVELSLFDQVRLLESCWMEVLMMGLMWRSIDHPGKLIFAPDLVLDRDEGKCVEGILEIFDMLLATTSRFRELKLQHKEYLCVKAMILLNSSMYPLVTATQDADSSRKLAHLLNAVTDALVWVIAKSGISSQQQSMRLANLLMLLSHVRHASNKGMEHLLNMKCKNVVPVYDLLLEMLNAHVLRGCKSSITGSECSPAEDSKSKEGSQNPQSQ
Briefly: Human ERα/β reporter assay panel (ERE-luc), ERβ. To be noted: 1 μg/mL, 24 hours; FIG. 6. The protocol:
as §1, §2

SMILES strings stand for the structures.

`C[C@]12CC[C@@H]3c4ccc(O)cc4CC[C@H]3[C@@H]1CC[C@@H]2O` [17b-estradiol]: the “growth of MCF-7 cells (number of cells)” value in test [1] is “promoted significantly”.

Take `CCNC(=O)CC[C@H](N)C(=O)O` [theanine, L-theanine]: the “activity of estrogen receptor ERα (luciferase activity)” value on estrogen receptor ERα is “no receptor-activating effect”. The “activity of estrogen receptor ERβ (luciferase activity)” value at estrogen receptor ERβ is on record as “no receptor-activating effect”.
